Results: ChEMBL document CHEMBL5291721, “A preclinical secondary pharmacology resource illuminates target-adverse drug reaction associations of marketed drugs” (Nat Commun, 2023)

What was measured:
[1] = target: T1, 5-hydroxytryptamine receptor 1A (Homo sapiens, UniProt P08908)
T1 sequence (P08908 whole entry): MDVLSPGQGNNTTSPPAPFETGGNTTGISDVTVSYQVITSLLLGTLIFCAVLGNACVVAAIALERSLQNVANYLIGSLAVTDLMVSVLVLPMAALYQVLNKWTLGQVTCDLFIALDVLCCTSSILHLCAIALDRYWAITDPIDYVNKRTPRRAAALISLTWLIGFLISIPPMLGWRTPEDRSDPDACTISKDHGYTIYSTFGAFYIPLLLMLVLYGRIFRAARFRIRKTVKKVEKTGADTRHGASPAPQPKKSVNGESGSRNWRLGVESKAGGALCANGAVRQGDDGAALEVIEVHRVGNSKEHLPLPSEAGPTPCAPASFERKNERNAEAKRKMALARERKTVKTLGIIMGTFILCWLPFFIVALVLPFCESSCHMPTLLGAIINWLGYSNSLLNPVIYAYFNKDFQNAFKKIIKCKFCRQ

[2] = target: Sodium-dependent noradrenaline transporter (Homo sapiens, UniProt P23975)
[3] = target: Acetylcholinesterase (Homo sapiens, UniProt P22303); format: functional
[4] = target: T2, Muscarinic acetylcholine receptor M2 (Homo sapiens, UniProt P08172)
T2 sequence (P08172 whole entry): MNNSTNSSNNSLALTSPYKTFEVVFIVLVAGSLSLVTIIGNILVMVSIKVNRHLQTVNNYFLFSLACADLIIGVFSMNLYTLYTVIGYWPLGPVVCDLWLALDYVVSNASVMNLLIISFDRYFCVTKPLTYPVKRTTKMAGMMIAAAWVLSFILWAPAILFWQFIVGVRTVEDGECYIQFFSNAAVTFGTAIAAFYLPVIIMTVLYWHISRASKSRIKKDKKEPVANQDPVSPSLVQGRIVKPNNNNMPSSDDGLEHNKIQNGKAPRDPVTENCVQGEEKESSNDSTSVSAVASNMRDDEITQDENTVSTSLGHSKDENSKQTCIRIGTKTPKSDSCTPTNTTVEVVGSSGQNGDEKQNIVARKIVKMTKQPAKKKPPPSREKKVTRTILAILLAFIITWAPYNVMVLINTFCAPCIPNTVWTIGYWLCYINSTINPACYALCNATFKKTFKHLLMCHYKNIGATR

[5] = target: T3, Alpha-2A adrenergic receptor (Homo sapiens, UniProt P08913)
T3 sequence (P08913 whole entry): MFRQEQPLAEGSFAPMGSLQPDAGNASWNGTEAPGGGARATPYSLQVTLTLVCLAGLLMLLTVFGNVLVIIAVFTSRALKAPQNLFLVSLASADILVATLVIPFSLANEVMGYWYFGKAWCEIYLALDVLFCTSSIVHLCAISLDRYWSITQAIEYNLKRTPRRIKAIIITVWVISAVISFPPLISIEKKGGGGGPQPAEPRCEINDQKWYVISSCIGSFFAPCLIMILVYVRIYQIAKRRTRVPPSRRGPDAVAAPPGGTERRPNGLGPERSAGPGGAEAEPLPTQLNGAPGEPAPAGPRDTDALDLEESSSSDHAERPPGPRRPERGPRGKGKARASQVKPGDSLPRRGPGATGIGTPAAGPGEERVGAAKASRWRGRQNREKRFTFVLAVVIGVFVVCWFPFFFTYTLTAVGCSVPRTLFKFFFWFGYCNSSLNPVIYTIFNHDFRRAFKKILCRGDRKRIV

[6] = target: Mu-type opioid receptor (Homo sapiens, UniProt P35372)
[7] = target: Histamine H3 receptor (Homo sapiens, UniProt Q9Y5N1)
[8] = target: Prothrombin (Homo sapiens, UniProt P00734); format: functional
[9] = target: Prostaglandin G/H synthase 1 (Homo sapiens, UniProt P23219); format: functional
[10] = target: T4, Thromboxane A2 receptor (Homo sapiens, UniProt P21731); format: functional, cell-based
T4 sequence (P21731 whole entry): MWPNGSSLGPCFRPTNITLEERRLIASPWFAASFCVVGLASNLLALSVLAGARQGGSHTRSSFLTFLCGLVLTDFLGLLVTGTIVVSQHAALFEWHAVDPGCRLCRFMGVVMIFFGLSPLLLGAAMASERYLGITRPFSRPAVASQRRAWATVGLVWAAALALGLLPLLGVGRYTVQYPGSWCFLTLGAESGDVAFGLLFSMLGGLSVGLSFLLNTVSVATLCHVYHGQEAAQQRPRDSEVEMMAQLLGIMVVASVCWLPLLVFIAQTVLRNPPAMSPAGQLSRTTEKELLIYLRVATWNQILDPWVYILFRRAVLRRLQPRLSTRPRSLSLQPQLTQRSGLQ

[11] = target: D(3) dopamine receptor (Homo sapiens, UniProt P35462)
[12] = target: T5, Amine oxidase [flavin-containing] A (Homo sapiens, UniProt P21397); format: functional
T5 sequence (P21397 whole entry): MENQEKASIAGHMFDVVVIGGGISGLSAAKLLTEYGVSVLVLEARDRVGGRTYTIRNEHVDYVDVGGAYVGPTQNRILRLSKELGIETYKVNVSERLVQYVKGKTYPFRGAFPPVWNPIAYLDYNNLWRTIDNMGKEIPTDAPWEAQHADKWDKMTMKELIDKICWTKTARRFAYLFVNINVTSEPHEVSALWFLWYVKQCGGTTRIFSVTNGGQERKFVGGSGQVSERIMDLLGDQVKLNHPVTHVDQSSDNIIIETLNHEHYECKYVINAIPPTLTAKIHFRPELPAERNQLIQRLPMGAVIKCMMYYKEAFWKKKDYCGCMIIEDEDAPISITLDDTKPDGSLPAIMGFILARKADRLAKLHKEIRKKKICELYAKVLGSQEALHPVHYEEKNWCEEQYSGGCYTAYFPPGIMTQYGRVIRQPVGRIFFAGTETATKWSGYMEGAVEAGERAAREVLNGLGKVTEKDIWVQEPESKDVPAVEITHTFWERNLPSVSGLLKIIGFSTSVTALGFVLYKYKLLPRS

[13] = target: D(1A) dopamine receptor (Homo sapiens, UniProt P21728)
[14] = target: T4, Thromboxane A2 receptor; format: functional, cell-based; remark: listed apart in the source
Further: assay procedure not described here.

Chain of Mu-type opioid receptor (P35372 whole entry): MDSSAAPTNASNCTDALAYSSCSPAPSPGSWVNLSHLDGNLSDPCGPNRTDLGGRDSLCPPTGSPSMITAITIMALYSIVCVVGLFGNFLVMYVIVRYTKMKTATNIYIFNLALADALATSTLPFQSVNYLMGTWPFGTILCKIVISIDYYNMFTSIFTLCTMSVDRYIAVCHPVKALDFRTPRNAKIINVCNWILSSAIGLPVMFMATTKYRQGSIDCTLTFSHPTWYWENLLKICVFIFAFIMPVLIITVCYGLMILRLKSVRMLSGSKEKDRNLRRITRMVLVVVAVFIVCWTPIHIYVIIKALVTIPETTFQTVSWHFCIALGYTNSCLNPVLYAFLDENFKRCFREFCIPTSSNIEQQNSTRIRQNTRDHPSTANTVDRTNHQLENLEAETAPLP
Chain of Prostaglandin G/H synthase 1 (P23219 whole entry): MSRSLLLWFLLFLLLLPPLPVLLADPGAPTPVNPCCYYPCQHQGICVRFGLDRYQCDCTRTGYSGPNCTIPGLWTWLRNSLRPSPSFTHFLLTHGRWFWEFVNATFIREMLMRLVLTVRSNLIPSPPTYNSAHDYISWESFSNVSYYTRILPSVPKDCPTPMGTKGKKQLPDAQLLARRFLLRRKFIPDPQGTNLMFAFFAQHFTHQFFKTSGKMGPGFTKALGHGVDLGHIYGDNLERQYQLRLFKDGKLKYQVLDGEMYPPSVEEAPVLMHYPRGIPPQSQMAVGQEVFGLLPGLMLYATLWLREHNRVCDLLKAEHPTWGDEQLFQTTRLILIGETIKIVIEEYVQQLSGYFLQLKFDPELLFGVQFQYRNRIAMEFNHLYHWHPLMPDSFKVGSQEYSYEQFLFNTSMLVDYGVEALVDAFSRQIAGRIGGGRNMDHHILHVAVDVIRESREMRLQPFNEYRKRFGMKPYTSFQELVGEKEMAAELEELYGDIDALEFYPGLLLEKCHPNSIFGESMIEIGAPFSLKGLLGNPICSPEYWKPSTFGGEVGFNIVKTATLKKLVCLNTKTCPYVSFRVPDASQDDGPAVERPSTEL
Chain of Acetylcholinesterase (P22303 whole entry): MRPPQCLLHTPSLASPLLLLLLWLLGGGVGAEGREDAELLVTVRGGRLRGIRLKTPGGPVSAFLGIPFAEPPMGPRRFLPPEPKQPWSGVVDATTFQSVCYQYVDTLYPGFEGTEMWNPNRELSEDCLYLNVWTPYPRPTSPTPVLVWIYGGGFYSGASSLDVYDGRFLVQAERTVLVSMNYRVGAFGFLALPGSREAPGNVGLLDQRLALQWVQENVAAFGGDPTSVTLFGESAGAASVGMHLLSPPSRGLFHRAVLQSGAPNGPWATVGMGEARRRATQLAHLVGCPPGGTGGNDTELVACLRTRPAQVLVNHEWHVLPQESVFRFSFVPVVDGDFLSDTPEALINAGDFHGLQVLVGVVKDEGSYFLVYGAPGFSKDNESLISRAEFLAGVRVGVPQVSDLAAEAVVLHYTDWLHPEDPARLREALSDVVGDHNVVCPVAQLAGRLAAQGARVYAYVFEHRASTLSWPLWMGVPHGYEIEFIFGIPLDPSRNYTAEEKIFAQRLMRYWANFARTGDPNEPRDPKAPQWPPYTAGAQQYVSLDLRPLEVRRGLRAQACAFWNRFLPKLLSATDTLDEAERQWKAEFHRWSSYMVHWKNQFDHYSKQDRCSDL
Chain of D(1A) dopamine receptor (P21728 whole entry): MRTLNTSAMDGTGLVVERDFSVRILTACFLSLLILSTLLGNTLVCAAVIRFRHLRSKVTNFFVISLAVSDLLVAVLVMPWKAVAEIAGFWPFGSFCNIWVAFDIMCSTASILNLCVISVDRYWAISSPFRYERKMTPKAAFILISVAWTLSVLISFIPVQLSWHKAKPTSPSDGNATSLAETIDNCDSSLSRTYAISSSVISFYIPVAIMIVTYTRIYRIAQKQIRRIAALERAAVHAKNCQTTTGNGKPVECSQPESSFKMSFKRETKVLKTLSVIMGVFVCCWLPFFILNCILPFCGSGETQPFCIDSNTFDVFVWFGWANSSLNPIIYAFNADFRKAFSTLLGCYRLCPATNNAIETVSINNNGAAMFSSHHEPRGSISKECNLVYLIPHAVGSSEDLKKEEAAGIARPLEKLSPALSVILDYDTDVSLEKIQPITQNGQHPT
Chain of Histamine H3 receptor (Q9Y5N1 whole entry): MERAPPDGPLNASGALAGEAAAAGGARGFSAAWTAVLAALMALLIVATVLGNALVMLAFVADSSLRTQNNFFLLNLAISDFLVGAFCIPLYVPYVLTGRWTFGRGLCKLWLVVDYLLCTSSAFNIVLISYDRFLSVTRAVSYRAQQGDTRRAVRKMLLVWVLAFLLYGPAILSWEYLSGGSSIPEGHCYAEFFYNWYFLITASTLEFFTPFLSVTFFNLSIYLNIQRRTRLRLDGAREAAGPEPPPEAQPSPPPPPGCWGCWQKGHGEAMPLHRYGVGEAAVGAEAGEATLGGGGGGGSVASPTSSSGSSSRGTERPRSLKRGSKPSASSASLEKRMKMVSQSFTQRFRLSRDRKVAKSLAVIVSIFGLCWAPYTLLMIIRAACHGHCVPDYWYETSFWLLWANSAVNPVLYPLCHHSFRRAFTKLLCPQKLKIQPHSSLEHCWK
Chain of Sodium-dependent noradrenaline transporter (P23975 whole entry): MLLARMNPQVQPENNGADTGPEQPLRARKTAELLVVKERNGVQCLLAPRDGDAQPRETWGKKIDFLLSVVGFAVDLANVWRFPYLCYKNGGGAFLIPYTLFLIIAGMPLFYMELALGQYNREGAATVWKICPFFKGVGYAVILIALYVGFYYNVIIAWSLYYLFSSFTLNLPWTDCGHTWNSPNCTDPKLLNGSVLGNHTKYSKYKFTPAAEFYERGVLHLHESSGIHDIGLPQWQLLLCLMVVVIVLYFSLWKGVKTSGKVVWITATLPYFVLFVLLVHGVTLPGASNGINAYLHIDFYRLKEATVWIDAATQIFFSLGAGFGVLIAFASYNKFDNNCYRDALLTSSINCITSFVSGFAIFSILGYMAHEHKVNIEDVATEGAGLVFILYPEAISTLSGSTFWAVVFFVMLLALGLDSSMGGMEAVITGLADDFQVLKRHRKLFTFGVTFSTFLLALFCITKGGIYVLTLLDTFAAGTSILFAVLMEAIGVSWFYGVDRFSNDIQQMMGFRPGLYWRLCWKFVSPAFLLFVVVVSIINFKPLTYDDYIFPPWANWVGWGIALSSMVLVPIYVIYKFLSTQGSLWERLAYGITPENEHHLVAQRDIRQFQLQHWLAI
Chain of D(3) dopamine receptor (P35462 whole entry): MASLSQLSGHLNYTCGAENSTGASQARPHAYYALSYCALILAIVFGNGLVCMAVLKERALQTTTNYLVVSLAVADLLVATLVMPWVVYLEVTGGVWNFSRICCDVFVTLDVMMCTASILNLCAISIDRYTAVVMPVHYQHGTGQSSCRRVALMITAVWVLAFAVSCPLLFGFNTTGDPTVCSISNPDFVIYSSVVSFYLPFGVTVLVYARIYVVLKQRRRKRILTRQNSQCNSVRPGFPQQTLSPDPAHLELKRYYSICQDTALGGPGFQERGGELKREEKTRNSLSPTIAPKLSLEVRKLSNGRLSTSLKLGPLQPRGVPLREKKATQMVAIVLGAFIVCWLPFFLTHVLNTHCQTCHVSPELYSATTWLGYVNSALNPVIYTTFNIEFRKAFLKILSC

Compound	AC50 [1] [µM]	AC50 [2] [µM]	AC50 [3] [µM]	AC50 [4] [µM]	AC50 [5] [µM]	AC50 [6] [µM]	AC50 [7] [µM]	AC50 [8] [µM]	AC50 [9] [µM]	AC50 [10] [µM]	AC50 [11] [µM]	AC50 [12] [µM]	AC50 [13] [µM]	AC50 [14] [µM]
COCCOc1cnc(NS(=O)(=O)c2ccccc2)nc1 [GLYMIDINE]	> 30	> 30	> 30	> 30	> 30	> 30	> 30	> 30	> 30	> 30	> 30	> 30	> 30	> 30
O=P(O)(O)C(Cl)(Cl)P(=O)(O)O [CLODRONIC ACID]	> 30	> 30	> 30	> 30	> 30	> 30	> 30	> 30	> 30	> 30	> 30	> 30	> 30	> 30
CO/N=C(\C(=O)N[C@@H]1C(=O)N2C(C(=O)[O-])=C(C[n+]3cccc4c3CCC4)CS[C@H]12)c1csc(N)n1 [CEFPIROME]	> 30	> 30	> 30	> 30	> 30	> 30	> 30	> 30	> 30	> 30	> 30	> 30	> 30	> 30
CC(C1=C(CCN(C)C)Cc2ccccc21)c1ccccn1 (stereo not given)	8.78	11.9	> 30	0.0784	15.1	7.04	13.2	> 30	19.4	> 30	6.44	> 30	6.52	> 30
CCOC(=O)[C@H](CCc1ccccc1)N[C@@H](C)C(=O)N1Cc2cc(OC)c(OC)cc2C[C@H]1C(=O)O [MOEXIPRIL]	> 30	> 30	> 30	> 30	> 30	> 30	> 30	> 30	> 30	> 30	> 30	> 30	> 30	> 30
C[C@@H](O)[C@H]1C(=O)N2C(C(=O)[O-])=C(SC3Cn4cnc[n+]4C3)[C@H](C)[C@H]12 (stereo not given in full) [BIAPENEM]	> 30	> 30	> 30	> 30	> 30	> 30	> 30	> 30	> 30	> 30	> 30	> 30	> 30	> 30
CCn1cc(C(=O)O)c(=O)c2cc(F)c(N3CCNCC3)nc21 [ENOXACIN]	> 30	> 30	> 30	> 30	> 30	> 30	> 30	> 30	> 30	> 30	> 30	> 30	> 30	> 30
c1ccc2c(CC3=NCCN3)cccc2c1 [NAPHAZOLINE]	0.114	> 30	> 30	> 30	0.022	8.37	> 30	> 30	> 30	> 30	–	> 30	> 30	> 30
CCOC(=O)c1ccc(OC(=O)CCCCCNC(=N)N)cc1 [GABEXATE]	> 30	9.03	> 30	1.49	> 30	> 30	> 30	0.17	> 30	> 30	> 30	> 30	> 30	> 30
CC(=O)OCC[N+](C)(C)C [ACETYLCHOLINE]	> 30	> 30	> 30	–	> 30	> 30	> 30	> 30	> 30	0.34	> 30	> 30	> 30	–
Cc1cc(CCN2CCN(c3cccc(Cl)c3)CC2)n[nH]1 [MEPIPRAZOLE]	0.003	> 30	> 30	> 30	4.52	15.7	> 30	> 30	> 30	> 30	0.0358	> 30	0.591	> 30
CNC(=O)Oc1ccc2c(c1)[C@]1(C)CCN(C)[C@@H]1N2C [PHYSOSTIGMINE]	> 30	> 30	–	> 30	> 30	5.74	> 30	> 30	4.3	> 30	> 30	> 30	> 30	> 30
N[C@@H](Cc1c[nH]c2ccc(O)cc12)C(=O)O [OXITRIPTAN]	–	> 30	> 30	> 30	> 30	> 30	> 30	> 30	> 30	> 30	> 30	> 30	> 30	> 30
CO[C@H]1/C=C/O[C@@]2(C)Oc3c(C)c(O)c4c(O)c(cc(O)c4c3C2=O)NC(=O)/C(C)=C\C=C\[C@H](C)[C@H](O)[C@@H](C)[C@@H](O)[C@@H](C)[C@H](OC(C)=O)[C@@H]1C [RIFAMYCIN]	> 30	> 30	> 30	> 30	> 30	> 30	> 30	> 30	28.7	8.77	> 30	> 30	> 30	–
